Assay results as given in paper PMC7198493 (Nature Communications, 2020).
Where a chain is given by its changes, count along the chain named.

How the values were obtained:
Assay type in all cases: binding
[1] = molecular target: T1, olfactory marker protein (OMP) (Mus musculus, UniProt Q64288); assay: competitive BRET displacement of 8NBD-cAMP from Rluc-OMP in HEK293T lysate
T1 construct: Rluc-OMP fusion, wild type
T1 sequence (Q64288 2-163): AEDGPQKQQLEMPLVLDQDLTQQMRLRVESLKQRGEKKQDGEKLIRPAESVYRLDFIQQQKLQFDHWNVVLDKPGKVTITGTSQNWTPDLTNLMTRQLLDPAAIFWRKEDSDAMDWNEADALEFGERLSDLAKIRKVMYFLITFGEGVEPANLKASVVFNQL

[2] = molecular target: T1, olfactory marker protein (OMP); assay: BRET from Rluc-OMP to fluorescent 8NBD-cAMP, dose-response (EC50 taken as apparent Kd)
[3] = molecular target: T2, olfactory marker protein (OMP) (Mus musculus, UniProt Q64288, G126E); assay: BRET from mutant Rluc-OMP to 8NBD-cAMP
T2 construct: Rluc-OMP fusion, G126E mutant
T2 sequence (Q64288 2-163 G126E): T1 sequence (Q64288 2-163) with G125E

Which IC50 [1] does the source give for `Nc1nc2c(ncn2[C@@H]2O[C@@H]3COP(=O)(O)O[C@H]3[C@H]2O)c(=O)[nH]1` [cGMP] here?
Its IC50 is 11 µM.

`Nc1ncnc2c1nc(SCCNc1ccc([N+](=O)[O-])c3nonc13)n2[C@@H]1O[C@@H]2COP(=O)(O)O[C@H]2[C@H]1O` [8NBD-cAMP] was tested. Which Kd [2] did it give?
The Kd was about 1.9 µM.

And the “BRET from mutant Rluc-OMP to 8NBD-cAMP” value [3]?
Its value is “pocket A-mutated Rluc-OMP^G126E retained the low-affinity interaction, whereas the pocket B mutants lost their interaction with 8NBD-cAMP”.
